Experimental data reported in ChEMBL document CHEMBL5252597, “Synthesis and biological evaluation of N-(3-fluorobenzyl)-4-(1-(methyl-d3)-1H-indazol-5-yl)-5-(6-methylpyridin-2-yl)-1H-imidazol-2-amine as a novel, potent ALK5 receptor inhibitor” (Bioorg Med Chem Lett, 2023).
pIC50: −log10 of the molar value.

Tests used:
Cytochrome P450 3A4 = Cytochrome P450 3A4 (Homo sapiens, UniProt P08684); experiment: Inhibition of CYP3A4 (unknown origin); assay type: ADME
Cytochrome P450 2D6 = Cytochrome P450 2D6 (Homo sapiens, UniProt P10635); experiment: Inhibition of CYP2D6 (unknown origin); assay type: ADME
Sequence of Cytochrome P450 2D6 (P10635 whole entry): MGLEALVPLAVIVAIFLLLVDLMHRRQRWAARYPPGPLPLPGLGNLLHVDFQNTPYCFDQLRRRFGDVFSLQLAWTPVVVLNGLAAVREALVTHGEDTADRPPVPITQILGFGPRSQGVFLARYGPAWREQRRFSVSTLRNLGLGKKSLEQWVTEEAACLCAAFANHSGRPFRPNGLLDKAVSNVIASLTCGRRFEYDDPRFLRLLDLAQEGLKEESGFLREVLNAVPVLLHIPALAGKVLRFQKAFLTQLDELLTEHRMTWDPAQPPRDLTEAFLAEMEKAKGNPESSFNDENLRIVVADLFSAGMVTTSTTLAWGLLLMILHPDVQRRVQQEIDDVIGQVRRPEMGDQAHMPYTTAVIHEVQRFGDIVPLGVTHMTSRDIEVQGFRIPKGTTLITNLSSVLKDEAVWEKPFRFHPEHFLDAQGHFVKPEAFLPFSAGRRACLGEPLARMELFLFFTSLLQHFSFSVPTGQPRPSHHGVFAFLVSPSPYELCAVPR

Cytochrome P450 2C19 = Cytochrome P450 2C19 (Homo sapiens, UniProt P33261); experiment: Inhibition of CYP2C19 (unknown origin); assay type: ADME
Sequence of Cytochrome P450 2C19 (P33261 whole entry): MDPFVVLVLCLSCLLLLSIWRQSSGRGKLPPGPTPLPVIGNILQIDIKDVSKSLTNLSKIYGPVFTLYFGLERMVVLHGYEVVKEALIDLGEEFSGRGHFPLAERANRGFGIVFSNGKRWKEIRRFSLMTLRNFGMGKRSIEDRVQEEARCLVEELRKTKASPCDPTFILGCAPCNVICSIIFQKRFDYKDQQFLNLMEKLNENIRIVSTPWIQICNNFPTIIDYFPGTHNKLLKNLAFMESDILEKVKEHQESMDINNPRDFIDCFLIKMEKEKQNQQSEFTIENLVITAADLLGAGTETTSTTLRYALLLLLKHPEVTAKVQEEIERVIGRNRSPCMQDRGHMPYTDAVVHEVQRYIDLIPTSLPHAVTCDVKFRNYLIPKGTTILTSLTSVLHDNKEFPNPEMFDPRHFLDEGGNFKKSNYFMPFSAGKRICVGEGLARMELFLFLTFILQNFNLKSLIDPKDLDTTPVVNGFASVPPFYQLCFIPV

Cytochrome P450 2C9 = Cytochrome P450 2C9 (Homo sapiens, UniProt P11712); experiment: Inhibition of CYP2C9 (unknown origin); assay type: ADME
Sequence of Cytochrome P450 2C9 (P11712 whole entry): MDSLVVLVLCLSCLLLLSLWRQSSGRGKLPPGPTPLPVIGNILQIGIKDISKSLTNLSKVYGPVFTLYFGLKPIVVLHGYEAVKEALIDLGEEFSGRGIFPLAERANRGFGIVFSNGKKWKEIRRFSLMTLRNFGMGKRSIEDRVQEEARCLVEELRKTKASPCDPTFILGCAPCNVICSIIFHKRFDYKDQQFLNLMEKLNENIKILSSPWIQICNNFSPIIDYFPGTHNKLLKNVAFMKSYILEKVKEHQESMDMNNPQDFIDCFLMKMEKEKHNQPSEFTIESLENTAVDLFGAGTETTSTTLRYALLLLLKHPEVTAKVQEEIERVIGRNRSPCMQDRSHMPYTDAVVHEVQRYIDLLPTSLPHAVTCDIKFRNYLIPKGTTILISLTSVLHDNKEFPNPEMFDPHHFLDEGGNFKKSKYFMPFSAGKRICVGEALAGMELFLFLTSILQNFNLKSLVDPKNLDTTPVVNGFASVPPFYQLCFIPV

Cytochrome P450 1A2 [1] = target: T1, Cytochrome P450 1A2 (Homo sapiens, UniProt P05177); experiment: Inhibition of CYP1A2 (unknown origin); assay type: ADME
T1 sequence (P05177 whole entry): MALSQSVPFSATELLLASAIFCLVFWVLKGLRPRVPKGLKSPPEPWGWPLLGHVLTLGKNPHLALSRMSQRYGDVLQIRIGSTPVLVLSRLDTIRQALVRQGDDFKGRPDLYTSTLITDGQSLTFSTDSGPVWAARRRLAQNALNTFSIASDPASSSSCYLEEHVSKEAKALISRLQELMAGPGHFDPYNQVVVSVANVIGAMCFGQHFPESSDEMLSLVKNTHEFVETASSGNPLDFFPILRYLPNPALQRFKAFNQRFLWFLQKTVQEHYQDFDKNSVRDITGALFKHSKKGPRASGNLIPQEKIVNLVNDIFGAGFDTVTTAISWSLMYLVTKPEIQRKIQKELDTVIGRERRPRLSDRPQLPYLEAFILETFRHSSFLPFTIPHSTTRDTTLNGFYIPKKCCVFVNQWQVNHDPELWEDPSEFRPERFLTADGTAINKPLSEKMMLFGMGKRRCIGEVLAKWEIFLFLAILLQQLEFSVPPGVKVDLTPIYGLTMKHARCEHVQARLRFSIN

Activin receptor type-1 = target: T2, Activin receptor type-1 (Homo sapiens, UniProt Q04771); experiment: Inhibition of human ALK2 by […] assay
T2 sequence (Q04771 whole entry): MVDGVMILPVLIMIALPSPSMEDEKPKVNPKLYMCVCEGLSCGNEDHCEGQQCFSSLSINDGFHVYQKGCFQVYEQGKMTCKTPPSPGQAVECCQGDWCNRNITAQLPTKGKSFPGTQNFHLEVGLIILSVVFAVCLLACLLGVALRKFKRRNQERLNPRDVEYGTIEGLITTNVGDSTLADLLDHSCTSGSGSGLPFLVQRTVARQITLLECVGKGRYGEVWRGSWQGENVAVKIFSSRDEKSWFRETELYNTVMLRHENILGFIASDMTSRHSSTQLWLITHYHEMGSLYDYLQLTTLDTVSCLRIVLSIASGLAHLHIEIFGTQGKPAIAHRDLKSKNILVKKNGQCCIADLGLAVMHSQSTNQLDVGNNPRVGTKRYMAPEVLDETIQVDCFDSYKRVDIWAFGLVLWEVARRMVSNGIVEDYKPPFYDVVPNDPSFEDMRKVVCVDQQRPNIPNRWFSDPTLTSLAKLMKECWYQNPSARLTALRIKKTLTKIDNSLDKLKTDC

TGF-beta receptor type-1 [2] = target: T3, TGF-beta receptor type-1 (Homo sapiens, UniProt P36897); experiment: Inhibition of ALK5 in human Hs-578T cells assessed as effect of TGF-beta-induced […] phosphorylation; assay type: cell-based
T3 sequence (P36897 whole entry): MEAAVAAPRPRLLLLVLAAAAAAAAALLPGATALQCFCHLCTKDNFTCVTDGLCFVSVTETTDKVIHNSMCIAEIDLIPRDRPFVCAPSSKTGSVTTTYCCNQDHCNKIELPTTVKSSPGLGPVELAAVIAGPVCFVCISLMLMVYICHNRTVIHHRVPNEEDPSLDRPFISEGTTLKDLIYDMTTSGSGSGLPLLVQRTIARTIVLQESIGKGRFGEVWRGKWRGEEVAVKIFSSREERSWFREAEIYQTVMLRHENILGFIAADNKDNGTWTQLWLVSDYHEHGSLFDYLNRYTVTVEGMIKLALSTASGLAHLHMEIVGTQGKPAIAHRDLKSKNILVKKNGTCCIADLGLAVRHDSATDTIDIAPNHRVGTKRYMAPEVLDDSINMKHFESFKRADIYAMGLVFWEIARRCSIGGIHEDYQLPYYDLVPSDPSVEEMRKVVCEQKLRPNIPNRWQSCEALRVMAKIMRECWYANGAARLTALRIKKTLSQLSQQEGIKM

Cytochrome P450 1A2 [3] = target: T4, Cytochrome P450 1A2 (Mus musculus, UniProt P00186); experiment: Inhibition of mouse CYP1A2; assay type: ADME
T4 sequence (P00186 whole entry): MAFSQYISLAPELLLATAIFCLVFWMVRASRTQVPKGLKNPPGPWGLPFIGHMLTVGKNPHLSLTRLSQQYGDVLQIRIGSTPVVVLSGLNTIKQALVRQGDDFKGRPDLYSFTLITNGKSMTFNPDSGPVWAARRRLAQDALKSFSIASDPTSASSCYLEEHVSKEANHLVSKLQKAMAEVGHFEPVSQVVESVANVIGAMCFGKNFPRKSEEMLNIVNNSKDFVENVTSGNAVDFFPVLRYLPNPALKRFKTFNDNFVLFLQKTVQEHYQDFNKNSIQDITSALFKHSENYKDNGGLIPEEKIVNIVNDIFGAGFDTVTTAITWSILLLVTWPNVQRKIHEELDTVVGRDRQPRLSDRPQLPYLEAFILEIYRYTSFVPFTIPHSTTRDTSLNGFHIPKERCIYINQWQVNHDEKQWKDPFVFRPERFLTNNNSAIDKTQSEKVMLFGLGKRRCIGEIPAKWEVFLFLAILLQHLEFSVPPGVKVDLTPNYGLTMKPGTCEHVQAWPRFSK

[4] = Inhibition of mouse CYP2C8; assay type: ADME
[5] = Inhibition of mouse CYP2C9; assay type: ADME
[6] = Inhibition of mouse CYP2D6; assay type: ADME
[7] = Inhibition of mouse CYP3A4; assay type: ADME
[8] = Stability of the compound in human plasma assessed as half life; assay type: ADME, cell-free
[9] = Stability of the compound in mouse plasma assessed as half life; assay type: ADME, cell-free
[10] = Metabolic stability in human liver microsomes assessed as intrinsic clearance; assay type: ADME, Microsome; conditions: read-out: CLH
[11] = Cmax in BALB/c mouse at 10 mg/kg, po; assay type: ADME, organism-based; set-up: dose 10 mg/kg, route po; conditions: in vivo
[12] = Total AUC in BALB/c mouse at 2 mg/kg, iv; assay type: ADME, organism-based; set-up: dose 2 mg/kg, route iv; conditions: in vivo
[13] = Total AUC in BALB/c mouse at 10 mg/kg, po; assay type: ADME, organism-based; set-up: dose 10 mg/kg, route po; conditions: in vivo
[14] = Tmax in BALB/c mouse at 10 mg/kg, po; assay type: ADME, organism-based; conditions: in vivo
[15] = Half life in BALB/c mouse at 2 mg/kg, iv; assay type: ADME, organism-based; conditions: in vivo
[16] = Half life in BALB/c mouse at 10 mg/kg, po; assay type: ADME, organism-based; conditions: in vivo
[17] = Clearance in BALB/c mouse at 2 mg/kg, iv; assay type: ADME, organism-based; conditions: in vivo
[18] = Volume of distribution in BALB/c mouse at 2 mg/kg, iv; assay type: ADME, organism-based; conditions: in vivo
[19] = Oral bioavailability in BALB/c mouse at 10 mg/kg; assay type: ADME, organism-based; conditions: in vivo
TGF-beta receptor type-1 [20] = target: T3, TGF-beta receptor type-1; experiment: Inhibition of human ALK5 by Kinase Glo luminescence assay

Sequence of Cytochrome P450 3A4 (P08684 whole entry): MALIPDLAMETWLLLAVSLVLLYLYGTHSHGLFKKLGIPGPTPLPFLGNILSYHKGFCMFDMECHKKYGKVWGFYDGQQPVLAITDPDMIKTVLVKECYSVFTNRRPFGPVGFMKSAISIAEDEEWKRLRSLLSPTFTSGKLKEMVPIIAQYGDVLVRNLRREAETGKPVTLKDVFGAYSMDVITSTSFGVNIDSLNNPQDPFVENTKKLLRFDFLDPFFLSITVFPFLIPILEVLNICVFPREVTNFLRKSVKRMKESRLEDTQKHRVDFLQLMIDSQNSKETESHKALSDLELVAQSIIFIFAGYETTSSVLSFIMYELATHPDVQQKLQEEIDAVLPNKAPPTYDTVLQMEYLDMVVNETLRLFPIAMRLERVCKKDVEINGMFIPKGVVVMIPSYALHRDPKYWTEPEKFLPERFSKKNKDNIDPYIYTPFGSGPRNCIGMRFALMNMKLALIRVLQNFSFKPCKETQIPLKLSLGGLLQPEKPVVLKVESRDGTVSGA

SMILES | pIC50 (Cytochrome P450 3A4) | pIC50 (Cytochrome P450 2D6) | pIC50 (Cytochrome P450 2C19) | pIC50 (Cytochrome P450 2C9) | pIC50 (Cytochrome P450 1A2 [1]) | pIC50 (Activin receptor type-1) | other results
Cc1cccc(-c2[nH]c(NCc3ccc(F)cc3F)nc2-c2ccc3[nH]ncc3c2)n1 | < 5.00 | 5.24 | 5.48 | 6.30 | 5.06 |  | 
CCn1ncc2cc(-c3nc(NCc4cccc(F)c4)[nH]c3-c3cccc(C)n3)ccc21 |  |  |  |  |  | < 5.00 | 
Cc1cccc(-c2[nH]c(NCc3cccc(F)c3)nc2-c2ccc3c(cnn3S(C)(=O)=O)c2)n1 | < 5.00 | < 5.00 | < 5.00 | < 5.00 | 5.03 | < 5.00 | pIC50 (TGF-beta receptor type-1 [2]): < 6.52
Cc1cccc(-c2[nH]c(NCc3ccc(Cl)cc3F)nc2-c2ccc3[nH]ncc3c2)n1 | 5.06 | 5.17 | 5.51 | 6.40 | 5.06 |  | 
Cc1cccc(-c2[nH]c(NCc3cccc(F)c3)nc2-c2ccc3c(cnn3C)c2)n1 | < 5.00 | < 5.00 | < 5.00 | < 5.00 | < 5.00 | < 5.00 | pIC50 (Cytochrome P450 1A2 [3]): 4.15; pIC50 [4]: 4.47; pIC50 [5]: 4.56; pIC50 [6]: 4.58; pIC50 [7]: 4.69; half-life [8]: > 2 h; half-life [9]: > 2 h; microsomal CLint [10]: 29.8 µL/min/mg; Cmax [11]: 1530 ng/mL; AUC [12]: 870 ng·h/mL; AUC [13]: 3030 ng·h/mL; Tmax [14]: 0.4 h; half-life [15]: 1.6 h; half-life [16]: 1.6 h; clearance [17]: 38.4 mL/min/kg; Vd [18]: 5.1 L/kg; bioavailability [19]: 69.6%
Cc1cccc(-c2[nH]c(NCc3cccc(F)c3F)nc2-c2ccc3[nH]ncc3c2)n1 | < 5.00 | 5.16 | 5.37 | 6.22 | < 5.00 |  | 
Cc1cccc(-c2[nH]c(NCc3ccc(Cl)c(Cl)c3)nc2-c2ccc3[nH]ncc3c2)n1 | < 5.00 | < 5.00 | < 5.00 | < 5.00 | < 5.00 |  | 
[2H]C([2H])([2H])n1ncc2cc(-c3nc(NCc4cccc(F)c4)[nH]c3-c3cccc(C)n3)ccc21 |  |  |  |  |  |  | pIC50 (Cytochrome P450 1A2 [3]): 4.17; pIC50 [4]: 4.41; pIC50 [5]: 4.66; pIC50 [6]: 4.69; pIC50 [7]: 4.80; half-life [8]: > 2 h; half-life [9]: > 2 h; microsomal CLint [10]: 23.1 µL/min/mg; Cmax [11]: 1720 ng/mL; AUC [12]: 1170 ng·h/mL; AUC [13]: 3940 ng·h/mL; Tmax [14]: 0.4 h; half-life [15]: 1.5 h; half-life [16]: 1.6 h; clearance [17]: 29 mL/min/kg; Vd [18]: 3.8 L/kg; bioavailability [19]: 67.6%
Cc1cccc(-c2[nH]c(NCc3cccc(F)c3)nc2-c2ccc3c(cnn3C(F)F)c2)n1 | < 5.00 | < 5.00 | < 5.00 | < 5.00 | 5.07 | < 5.00 | 
Cc1cccc(-c2[nH]c(NCc3cccc(F)c3)nc2-c2ccc3[nH]ncc3c2)n1 | < 5.00 | 5.17 | 5.07 | 5.96 | < 5.00 | < 5.00 | 
Cc1cccc(-c2[nH]c(NCc3ccccc3F)nc2-c2ccc3[nH]ccc3c2)n1 |  |  |  |  |  |  | pIC50 (TGF-beta receptor type-1 [20]): < 5.00; pIC50 (TGF-beta receptor type-1 [2]): < 6.52
Cc1cccc(-c2[nH]c(NCc3ccc(F)c(F)c3)nc2-c2ccc3[nH]ncc3c2)n1 | < 5.00 | 5.39 | 5.37 | 6.40 | 5.07 |  | 
Cc1cccc(-c2[nH]c(NCc3ccccc3F)nc2-c2ccc3[nH]ncc3c2)n1 | < 5.00 | 5.06 | 5.14 | 5.85 | < 5.00 |  | 
Cc1cccc(-c2[nH]c(NCc3cccc(Cl)c3F)nc2-c2ccc3[nH]ncc3c2)n1 | 5.10 | 5.32 | 5.44 | 6.30 | < 5.00 |  | 
